Results reported in BigSolDB 2.1.

SMILES: O=C(c1ccc(F)cc1)c1ccc(F)cc1
- solubility (mole fraction) (in acetone, 293.15 K): 0.0915
- solubility (mole fraction) (in acetone, 298.15 K): 0.107
- solubility (mole fraction) (in acetone, 303.15 K): 0.126
- solubility (mole fraction) (in acetone, 308.15 K): 0.147
- solubility (mole fraction) (in acetone, 313.15 K): 0.172
- solubility (mole fraction) (in acetone, 318.15 K): 0.199
- solubility (mole fraction) (in acetone, 323.15 K): 0.231
- solubility (mole fraction) (in acetone, 328.15 K): 0.266
- solubility (mole fraction) (in acetone, 333.15 K): 0.308
- solubility (mole fraction) (in acetonitrile, 293.15 K): 0.03
- solubility (mole fraction) (in acetonitrile, 298.15 K): 0.0386
- solubility (mole fraction) (in acetonitrile, 303.15 K): 0.0491
- solubility (mole fraction) (in acetonitrile, 308.15 K): 0.0631
- solubility (mole fraction) (in acetonitrile, 313.15 K): 0.08
- solubility (mole fraction) (in acetonitrile, 318.15 K): 0.101
- solubility (mole fraction) (in acetonitrile, 323.15 K): 0.126
- solubility (mole fraction) (in acetonitrile, 328.15 K): 0.158
- solubility (mole fraction) (in acetonitrile, 333.15 K): 0.197
- solubility (mole fraction) (in ethanol, 293.15 K): 0.0084
- solubility (mole fraction) (in ethanol, 298.15 K): 0.0104
- solubility (mole fraction) (in ethanol, 303.15 K): 0.0129
- solubility (mole fraction) (in ethanol, 308.15 K): 0.016
- solubility (mole fraction) (in ethanol, 313.15 K): 0.0197
- solubility (mole fraction) (in ethanol, 318.15 K): 0.0242
- solubility (mole fraction) (in ethanol, 323.15 K): 0.0297
- solubility (mole fraction) (in ethanol, 328.15 K): 0.0364
- solubility (mole fraction) (in ethanol, 333.15 K): 0.0447
- solubility (mole fraction) (in ethyl acetate, 293.15 K): 0.101
- solubility (mole fraction) (in ethyl acetate, 298.15 K): 0.117
- solubility (mole fraction) (in ethyl acetate, 303.15 K): 0.134
- solubility (mole fraction) (in ethyl acetate, 308.15 K): 0.155
- solubility (mole fraction) (in ethyl acetate, 313.15 K): 0.177
- solubility (mole fraction) (in ethyl acetate, 318.15 K): 0.203
- solubility (mole fraction) (in ethyl acetate, 323.15 K): 0.231
- solubility (mole fraction) (in ethyl acetate, 328.15 K): 0.264
- solubility (mole fraction) (in ethyl acetate, 333.15 K): 0.299
- solubility (mole fraction) (in isobutanol, 293.15 K): 0.0097
- solubility (mole fraction) (in isobutanol, 298.15 K): 0.0125
- solubility (mole fraction) (in isobutanol, 303.15 K): 0.0158
- solubility (mole fraction) (in isobutanol, 308.15 K): 0.02
- solubility (mole fraction) (in isobutanol, 313.15 K): 0.0255
- solubility (mole fraction) (in isobutanol, 318.15 K): 0.0322
- solubility (mole fraction) (in isobutanol, 323.15 K): 0.0407
- solubility (mole fraction) (in isobutanol, 328.15 K): 0.0511
- solubility (mole fraction) (in isobutanol, 333.15 K): 0.0643
- solubility (mole fraction) (in isopropanol, 293.15 K): 0.0079
- solubility (mole fraction) (in isopropanol, 298.15 K): 0.0101
- solubility (mole fraction) (in isopropanol, 303.15 K): 0.0131
- solubility (mole fraction) (in isopropanol, 308.15 K): 0.017
- solubility (mole fraction) (in isopropanol, 313.15 K): 0.0217
- solubility (mole fraction) (in isopropanol, 318.15 K): 0.0276
- solubility (mole fraction) (in isopropanol, 323.15 K): 0.0352
- solubility (mole fraction) (in isopropanol, 328.15 K): 0.0445
- solubility (mole fraction) (in isopropanol, 333.15 K): 0.056
- solubility (mole fraction) (in methanol, 293.15 K): 0.0062
- solubility (mole fraction) (in methanol, 298.15 K): 0.0076
- solubility (mole fraction) (in methanol, 303.15 K): 0.0093
- solubility (mole fraction) (in methanol, 308.15 K): 0.0114
- solubility (mole fraction) (in methanol, 313.15 K): 0.0138
- solubility (mole fraction) (in methanol, 318.15 K): 0.0168
- solubility (mole fraction) (in methanol, 323.15 K): 0.0204
- solubility (mole fraction) (in methanol, 328.15 K): 0.0245
- solubility (mole fraction) (in methanol, 333.15 K): 0.0297
- solubility (mole fraction) (in methyl acetate, 293.15 K): 0.0956
- solubility (mole fraction) (in methyl acetate, 298.15 K): 0.112
- solubility (mole fraction) (in methyl acetate, 303.15 K): 0.131
- solubility (mole fraction) (in methyl acetate, 308.15 K): 0.152
- solubility (mole fraction) (in methyl acetate, 313.15 K): 0.177
- solubility (mole fraction) (in methyl acetate, 318.15 K): 0.205
- solubility (mole fraction) (in methyl acetate, 323.15 K): 0.238
- solubility (mole fraction) (in methyl acetate, 328.15 K): 0.274
- solubility (mole fraction) (in methyl acetate, 333.15 K): 0.316
- solubility (mole fraction) (in n-butanol, 293.15 K): 0.011
- solubility (mole fraction) (in n-butanol, 298.15 K): 0.014
- solubility (mole fraction) (in n-butanol, 303.15 K): 0.0177
- solubility (mole fraction) (in n-butanol, 308.15 K): 0.0225
- solubility (mole fraction) (in n-butanol, 313.15 K): 0.0282
- solubility (mole fraction) (in n-butanol, 318.15 K): 0.0354
- solubility (mole fraction) (in n-butanol, 323.15 K): 0.0444
- solubility (mole fraction) (in n-butanol, 328.15 K): 0.0555
- solubility (mole fraction) (in n-butanol, 333.15 K): 0.0691
- solubility (mole fraction) (in n-propanol, 293.15 K): 0.0103
- solubility (mole fraction) (in n-propanol, 298.15 K): 0.0127
- solubility (mole fraction) (in n-propanol, 303.15 K): 0.0159
- solubility (mole fraction) (in n-propanol, 308.15 K): 0.0197
- solubility (mole fraction) (in n-propanol, 313.15 K): 0.0246
- solubility (mole fraction) (in n-propanol, 318.15 K): 0.0305
- solubility (mole fraction) (in n-propanol, 323.15 K): 0.0378
- solubility (mole fraction) (in n-propanol, 328.15 K): 0.0467
- solubility (mole fraction) (in n-propanol, 333.15 K): 0.0576
